Source: ChEMBL document CHEMBL6092191, “Advancing Cancer Immunotherapy through Engineering New PD-L1 Degraders: A Comprehensive Study from Small Molecules to PD-L1-Specific Peptide-Drug Conjugates” (J Med Chem, 2024)
Active and inactive are the calls of the source. No cut-off for these calls is given here.

Legend:
HEK-293T = test: Antiproliferative activity against HEK293T cells at 10 uM incubated for 4 days; format: toxicity, cell-based; details: human, 96 h, time 4 day
[1] = Toxicity in C57BL/6 mouse model xenografted with […] cells assessed as obvious body weight change at 29.5 mg/kg, ip administered daily for 8 days; format: organism-based; details: in vivo, 192 h, time 8 day
[2] = system: Lewis lung carcinoma cell line; test: Antitumor T-cell immune response in Lewis lung carcinoma cells xenografted in C57BL/6 mouse model assessed as increase in CD3+ CD8+ infiltration in CD45+ T cells in tumor at 29.5 mg/kg, ip administered daily for 8 days by flow cytometry; format: functional, organism-based; details: time 8.0 day
[3] = system: Lewis lung carcinoma cell line; test: Antitumor activity against Lewis lung carcinoma cells xenografted in C57BL/6 mouse model assessed as decrease in Ki-67 level at 29.5 mg/kg, ip administered daily for 8 days by IHC analysis; format: functional, organism-based; details: time 8.0 day
[4] = Toxicity in C57BL/6 mouse model xenografted with […] cells assessed as damage in liver at 29.5 mg/kg, ip administered daily for 8 days by H and E staining based analysis; format: organism-based; details: in vivo, 192 h, time 8 day
[5] = Toxicity in C57BL/6 mouse model xenografted with […] cells assessed as change in AST level at 29.5 mg/kg, ip administered daily for 8 days; format: organism-based, Blood; details: in vivo, 192 h, time 8 day
[6] = Toxicity in C57BL/6 mouse model xenografted with […] cells assessed as change in creatinine level at 29.5 mg/kg, ip administered daily for 8 days; format: organism-based; details: in vivo, 192 h, time 8 day
[7] = system: Lewis lung carcinoma cell line; test: Antitumor T-cell immune response in Lewis lung carcinoma cells xenografted in C57BL/6 mouse model assessed as increase in ratio of CD8+ to CD4+ T cells in tumor at 29.5 mg/kg, ip administered daily for 8 days by flow cytometry; format: functional, organism-based; details: time 8.0 day
[8] = Toxicity in C57BL/6 mouse model xenografted with […] cells assessed as damage in spleen at 29.5 mg/kg, ip administered daily for 8 days by H and E staining based analysis; format: organism-based; details: in vivo, 192 h, time 8 day
3T3-L1 = test: Antiproliferative activity against mouse 3T3-L1 cells at 10 uM incubated for 4 days; format: toxicity, cell-based; details: 3t3-l1, 96 h, time 4 day
[9] = Toxicity in C57BL/6 mouse model xenografted with […] cells assessed as damage in heart at 29.5 mg/kg, ip administered daily for 8 days by H and E staining based analysis; format: organism-based; details: in vivo, 192 h, time 8 day
[10] = system: Lewis lung carcinoma cell line; test: Antitumor activity against Lewis lung carcinoma cells xenografted in C57BL/6 mouse model at 29.5 mg/kg, ip administered daily for 8 days relative to control; format: functional; details: 192 h, time 8 day, read-out: TGI
[11] = Antiproliferative activity against human HTori-3 cells at 10 uM incubated for 4 days; format: toxicity, cell-based; details: htori-3, 96 h, time 4 day
[12] = Toxicity in C57BL/6 mouse model xenografted with […] cells assessed as damage in kidney at 29.5 mg/kg, ip administered daily for 8 days by H and E staining based analysis; format: organism-based; details: in vivo, 192 h, time 8 day
[13] = Toxicity in C57BL/6 mouse model xenografted with […] cells assessed as damage in lung at 29.5 mg/kg, ip administered daily for 8 days by H and E staining based analysis; format: organism-based; details: in vivo, 192 h, time 8 day
[14] = molecular target: COP9 signalosome complex subunit 5 (Homo sapiens) (UniProt Q92905); test: Induction of PD-L1 degradation in human NCI-H460 cells at 10 to 20 uM incubated for 2 days by Western blot analysis; format: cell-based; details: dose 10-20 µM, time 2.0 day
COP9 signalosome complex subunit 5 (Homo sapiens), sequence (Q92905 2-334 limits assumed, one chain of several): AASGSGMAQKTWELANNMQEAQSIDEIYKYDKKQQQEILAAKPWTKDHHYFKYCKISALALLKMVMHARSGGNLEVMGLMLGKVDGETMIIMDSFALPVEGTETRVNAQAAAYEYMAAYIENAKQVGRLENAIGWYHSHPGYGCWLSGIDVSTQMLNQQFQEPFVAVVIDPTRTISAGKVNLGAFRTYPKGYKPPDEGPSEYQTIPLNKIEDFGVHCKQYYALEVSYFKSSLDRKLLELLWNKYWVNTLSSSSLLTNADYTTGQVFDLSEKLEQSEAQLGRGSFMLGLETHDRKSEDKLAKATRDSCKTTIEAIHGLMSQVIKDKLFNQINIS

[15] = Toxicity in C57BL/6 mouse model xenografted with […] cells assessed as change in BUN level at 29.5 mg/kg, ip administered daily for 8 days; format: organism-based, Blood; details: in vivo, 192 h, time 8 day
[16] = Toxicity in C57BL/6 mouse model xenografted with […] cells assessed as change in ALT level at 29.5 mg/kg, ip administered daily for 8 days; format: organism-based, Blood; details: in vivo, 192 h, time 8 day
[17] = system: Lewis lung carcinoma cell line; test: Antitumor T-cell immune response in Lewis lung carcinoma cells xenografted in C57BL/6 mouse model assessed as decrease in CD3+ CD4+ population in CD45+ T cells in tumor at 29.5 mg/kg, ip administered daily for 8 days by flow cytometry; format: functional, organism-based; details: time 8.0 day
Mus musculus = test: In vivo induction of PD-L1 degradation in […] lung carcinoma cells xenografted in C57BL/6 mouse model at 29.5 mg/kg, ip administered daily for 8 days by IHC analysis; format: functional, organism-based; details: time 8.0 day

For `COc1cc2c(cc1OC)-c1cc3ccc(OC)c(OCCNC(=O)OCCSSC[C@H](N)C(=O)NCCCCCC(=O)N[C@@H](CC(N)=O)C(=O)N[C@@H](Cc4ccc(O)cc4)C(=O)N[C@@H](CO)C(=O)N[C@@H](CCCCN)C(=O)N4CCC[C@H]4C(=O)N[C@H](C(=O)N[C@@H](CC(=O)O)C(=O)N[C@@H](CCCNC(=N)N)C(=O)N[C@@H](CCC(N)=O)C(=O)N[C@@H](Cc4ccc(O)cc4)C(=O)N[C@@H](Cc4cnc[nH]4)C(=O)N[C@@H](Cc4ccccc4)C(=O)O)[C@@H](C)O)c3c[n+]1CC2.[Cl-]`, the Activity (HEK-293T) was “Non-toxic”, the Activity [1] was “Non-toxic” and the Activity [2] was “Active”. For the same molecule, the Activity [3] was “Active”, the Activity [4] was “Non-toxic” and the Activity [5] was “Non-toxic”. For the same molecule, the Activity [6] was “Non-toxic”, the Activity [7] was “Active” and the Activity [8] was “Non-toxic”. For the same molecule, the Activity (3T3-L1) was “Non-toxic”, the Activity [9] was “Non-toxic” and the inhibition in vivo at 29.5 mg/kg [10] was 89%. For the same molecule, the Activity [11] was “Non-toxic”, the Activity [12] was “Non-toxic” and the Activity [13] was “Non-toxic”. The Activity [14] was “Active; Comparable To Pmt-O9-1A”, the Activity [15] was “Non-toxic” and the Activity [16] was “Non-toxic”. The Activity [17] was “Active” and the Activity (Mus musculus) was “Active”.
